Laboratory results: patent US3974140A, “Ureidoacetamido-penicillins” (Bayer Aktiengesellschaft, priority 1970, dated 1976)

Experiments:
Assay in all cases: MIC, liquid medium test tube series dilution test
E. coli 14 = assay type: cell-based; conditions: E. coli 14, 24 hours, 37°C
Procedure, shortened: (§1)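 Values are minimum inhibitory concentrations in units/ml, taken as the first clear (non-turbid) tube of a dilution series. Tubes of complete liquid medium were incubated 24 h at 37°C.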

E. coli 183/58 = assay type: cell-based; conditions: E. coli 183/58, 24 hours, 37°C
Procedure, shortened: as §1

E. coli A 261 = assay type: cell-based; conditions: E. coli A 261, 24 hours, 37°C
Procedure, shortened: as §1

E. coli C 165 = assay type: cell-based; conditions: E. coli C 165, 24 hours, 37°C
Procedure, shortened: as §1

Klebsiella 63 = assay type: cell-based; conditions: Klebsiella 63, 24 hours, 37°C
Procedure, shortened: as §1

Klebsiella K 10 = assay type: cell-based; conditions: Klebsiella K 10, 24 hours, 37°C
Procedure, shortened: as §1

[1] = tested on: Streptoc. faec. ATCC 9790; assay type: cell-based; conditions: Strep. faec. (Enterococcus) ATCC 9790, 24 hours, 37°C
Procedure, shortened: as §1

Proteus vulg. 1017 = assay type: cell-based, Proteus vulgaris; conditions: Proteus vulg. 1017, 24 hours, 37°C
Procedure, shortened: as §1

Proteus vulg. 3400 = assay type: cell-based, Proteus vulgaris; conditions: Proteus vulg. 3400, 24 hours, 37°C
Procedure, shortened: as §1

Psdm. aerug. Bonn = assay type: cell-based, Pseudomonas aerug.; conditions: 24 hours, 37°C
Procedure, shortened: as §1

Psdm. aerug. Walter = assay type: cell-based, Pseudomonas aerug.; conditions: 24 hours, 37°C
Procedure, shortened: as §1

Staph. aureus 133 = assay type: cell-based, Staphylococcus aureus; conditions: Staph. aureus 133, 24 hours, 37°C
Procedure, shortened: as §1

Staph. aureus 1777 E = assay type: cell-based, Staphylococcus aureus; conditions: 24 hours, 37°C
Procedure, shortened: as §1

Row | MIC (E. coli 14) [units/ml] | MIC (E. coli 183/58) [units/ml] | MIC (E. coli A 261) [units/ml] | MIC (E. coli C 165) [units/ml] | MIC (Klebsiella 63) [units/ml] | MIC (Klebsiella K 10) [units/ml] | MIC [1] [units/ml] | MIC (Proteus vulg. 1017) [units/ml] | MIC (Proteus vulg. 3400) [units/ml] | MIC (Psdm. aerug. Bonn) [units/ml] | MIC (Psdm. aerug. Walter) [units/ml] | MIC (Staph. aureus 133) [units/ml] | MIC (Staph. aureus 1777 E) [units/ml] | SMILES | also measured
1 | 3.1 | 25 | > 400 | 25 | 200 | 50 | 100 | 12.5 | 50 | 100 | 50 | 3.1 | 200 | CC1(C)S[C@@H]2[C@H](NC(=O)[C@H](NC(=O)N3CCCCC3=O)c3ccccc3)C(=O)N2[C@H]1C(=O)O [Example 134, Sodium D(-)-α-(1-piperidin-2-on-1-yl-carbonylamino)-benzylpenicillin] | 
2 | 0.78 | 1.56 | 50 | 1.56 | 6.25 | 6.25 | 50 | 3.12 | 6.25 | 6.25 | 12.5 | < 0.78 | 6.25 | Cc1ccccc1C(=O)N(C)C(=O)N[C@@H](C(=O)N[C@@H]1C(=O)N2[C@@H]1SC(C)(C)[C@@H]2C(=O)O)c1ccccc1 [Example 129, Sodium D(-)-α-(3-[2-methylbenzoyl]-3-methyl-ureido)-benzylpenicillin] | 
3 | 12.5 | 25 | 400 | 50 | 400 | 100 | 200 | 25 | 100 | 400 | 100 | < 0.8 | 100 | CN(C(=O)NC(C(=O)N[C@@H]1C(=O)N2[C@@H]1SC(C)(C)[C@@H]2C(=O)O)c1cccs1)C(=O)c1ccccc1Cl (stereo partly drawn) [Example 135, Sodium α-(3-o-chlorobenzoyl-3-methyl-ureido)-α-thienyl(2)-methylpenicillin] | 

Row | SMILES | MIC (E. coli 14) [units/ml] | MIC (E. coli 183/58) [units/ml] | MIC (E. coli A 261) [units/ml] | MIC (E. coli C 165) [units/ml] | MIC (Klebsiella 63) [units/ml] | MIC (Klebsiella K 10) [units/ml] | MIC [1] [units/ml] | MIC (Proteus vulg. 1017) [units/ml] | MIC (Proteus vulg. 3400) [units/ml] | MIC (Psdm. aerug. Bonn) [units/ml] | MIC (Psdm. aerug. Walter) [units/ml] | MIC (Staph. aureus 133) [units/ml] | MIC (Staph. aureus 1777 E) [units/ml] | also measured
4 | CCCCOC(=O)N(C)C(=O)N[C@@H](C(=O)N[C@@H]1C(=O)N2[C@@H]1SC(C)(C)[C@@H]2C(=O)O)c1ccccc1 [Example 98, Sodium D(-)-α-(3-n-butoxycarbonyl-3-methyl-ureido)-benzylpenicillin] | 3.12 | 6.25 | > 400 | 6.25 | 400 | 400 | 100 | 12.5 | 25 | 12.5 | 25 | < 0.78 | 200 | MIC (E. coli 14; listed as (B) of Example 28): 3.12 units/ml; MIC (E. coli 183/58; listed as (B) of Example 28): 6.25 units/ml; MIC (E. coli C 165; listed as (B) of Example 28): 6.25 units/ml; MIC (Proteus vulg. 1017; listed as (B) of Example 28): 12.5 units/ml; MIC (Proteus vulg. 3400; listed as (B) of Example 28): 25 units/ml; MIC (Psdm. aerug. Bonn; listed as (B) of Example 28): 12.5 units/ml; MIC (Psdm. aerug. Walter; listed as (B) of Example 28): 25 units/ml; MIC (Staph. aureus 133; listed as (B) of Example 28): < 0.78 units/ml
